Reference: patent US10689377B2 (Mirati Therapeutics, Inc., priority 2017, dated 2020)

Target: KRas G12C (Homo sapiens, UniProt P01116, G12C)
Assay: Cellular inhibition of KRas G12C measured by Phospho-ERK in NCI-H358 cells
Type: cell-based
Conditions: pERK(Thr202/Tyr204) normalized with GAPDH, NCI-H358 cells, 3 hours; read-out: IC50
Method in brief: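 Ratio of phospho-ERK(Thr202/Tyr204) to GAPDH, read by near-infrared secondary antibodies on fixed, permeabilised NCI-H358 cells, expressed relative to DMSO control. Compound exposure was 3 h at 0.5% DMSO. IC50 values come from 4-parameter curve fits.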

KRas G12C, sequence (P01116 1-188 isoform P01116-2 G12C): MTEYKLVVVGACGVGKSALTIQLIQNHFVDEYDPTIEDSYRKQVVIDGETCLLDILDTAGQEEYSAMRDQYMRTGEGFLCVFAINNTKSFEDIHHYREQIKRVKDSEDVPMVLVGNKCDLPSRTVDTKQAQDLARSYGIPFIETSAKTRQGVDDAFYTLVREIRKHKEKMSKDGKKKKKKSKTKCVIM

`C=CC(=O)N1CCN(c2nc(OC[C@H]3CN(C)CCO3)nc3c2CCN(c2cccc4ccccc24)C3)C[C@@H]1CC#N` [Example 450, 2-((S)-1-Acryloyl-4-(2-(((R)-4-methylmorpholin-2-yl)methoxy)-7-(naphthalen-1-yl)-5,6,7,8-tetrahydropyrido[3,4-d]pyrimidin-4-yl)piperazin-2-yl)acetonitrile] and `C=CC(=O)N1CCN(c2nc(OC[C@H]3CN(C)[C@H](C)CO3)nc3c2CCN(c2cccc4ccccc24)C3)C[C@@H]1CC#N` [Example 451, 2-((S)-1-Acryloyl-4-(2-(((2R,5R)-4,5-dimethylmorpholin-2-yl)methoxy)-7-(naphthalen-1-yl)-5,6,7,8-tetrahydropyrido[3,4-d]pyrimidin-4-yl)piperazin-2-yl)acetonitrile] fall in the same range of IC50: 0.0001 to 1 µM for the first, 0.0001 to 1 µM for the second.

`C=CC(=O)N1CCN(c2nc(OC[C@H]3CN(C)C(C)(C)CO3)nc3c2CCN(c2cccc4ccccc24)C3)C[C@@H]1CC#N` [Example 452, 2-((S)-1-Acryloyl-4-(7-(naphthalen-1-yl)-2-(((R)-4,5,5-trimethylmorpholin-2-yl)methoxy)-5,6,7,8-tetrahydropyrido[3,4-d]pyrimidin-4-yl)piperazin-2-yl)acetonitrile] and `C=CC(=O)N1CCN(c2nc(OC[C@@H]3CCCN3C)nc3c2CCN(c2cccc4cccc(C)c24)C3)C[C@H]1CC#N` [Example 461, 2-[(2R)-4-[7-(8-methyl-1-naphthyl)-2-[[(2S)-1-methylpyrrolidin-2-yl]methoxy]-6,8-dihydro-5H-pyrido[3,4-d]pyrimidin-4-yl]-1-prop-2-enoyl-piperazin-2-yl]acetonitrile] fall in the same range of IC50: 0.0001 to 1 µM for the first, 0.0001 to 1 µM for the second.

`C=CC(=O)N1CCN(c2nc(OC[C@@H]3CCCN3C)nc3c2CCN(c2c(C)c(C)cc4[nH]ncc24)C3)CC1` [Example 453, 1-[4-[7-(5,6-dimethyl-1H-indazol-4-yl)-2-[[(2S)-1-methylpyrrolidin-2-yl]methoxy]-6,8-dihydro-5H-pyrido[3,4-d]pyrimidin-4-yl]piperazin-1-yl]prop-2-en-1-one] and `C=CC(=O)N1CCN(c2nc(OC[C@@H]3CCCN3C)nc3c2CCN(c2c(C)c(C)cc4[nH]ccc24)C3)CC1` [Example 457, 1-[4-[7-(5,6-dimethyl-1H-indol-4-yl)-2-[[(2S)-1-methylpyrrolidin-2-yl]methoxy]-6,8-dihydro-5H-pyrido[3,4-d]pyrimidin-4-yl]piperazin-1-yl]prop-2-en-1-one] fall in the same range of IC50: 0.0001 to 1 µM for the first, 0.0001 to 1 µM for the second.

`C=CC(=O)N1CCN(c2nc(OCCN3CCC(F)(F)CC3)nc3c2CCN(c2cccc4cccc(Cl)c24)C3)C[C@@H]1CC#N` [Example 454] and `C=CC(=O)N1CCN(c2nc(OCCN3CCCC(F)(F)C3)nc3c2CCN(c2cccc4cccc(Cl)c24)C3)C[C@@H]1CC#N` [Example 455, 2-[(2S)-4-[7-(8-chloro-1-naphthyl)-2-[2-(3,3-difluoro-1-piperidyl)ethoxy]-6,8-dihydro-5H-pyrido[3,4-d]pyrimidin-4-yl]-1-prop-2-enoyl-piperazin-2-yl]acetonitrile] fall in the same range of IC50: 0.0001 to 1 µM for the first, 0.0001 to 1 µM for the second.

`CC#CC(=O)N1CCN(c2nc(OC[C@@H]3CCCN3C)nc3c2CCN(c2cccc4cccc(C)c24)C3)C[C@@H]1CC#N` [Example 458, 2-((S)-1-(but-2-ynoyl)-4-(7-(8-methylnaphthalen-1-yl)-2-(((S)-1-methylpyrrolidin-2-yl)methoxy)-5,6,7,8-tetrahydropyrido[3,4-d]pyrimidin-4-yl)piperazin-2-yl)acetonitrile] and `CN1CCC[C@H]1COc1nc2c(c(N3CCN(C(=O)C#CCO)[C@@H](CC#N)C3)n1)CCN(c1cccc3cccc(Cl)c13)C2` [Example 483, 2-[(2S)-4-[7-(8-chloro-1-naphthyl)-2-[[(2S)-1-methylpyrrolidin-2-yl]methoxy]-6,8-dihydro-5H-pyrido[3,4-d]pyrimidin-4-yl]-1-(4-hydroxybut-2-ynoyl)piperazin-2-yl]acetonitrile] fall in the same range of IC50: 0.0001 to 1 µM for the first, 0.0001 to 1 µM for the second.

`Cc1cccc2cccc(N3CCc4c(nc(OC[C@@H]5CCCN5C)nc4N4CCN(C(=O)/C=C/CN(C)C)[C@@H](CC#N)C4)C3)c12` [Example 459, 2-((S)-1-((E)-4-(dimethylamino)but-2-enoyl)-4-(7-(8-methylnaphthalen-1-yl)-2-(((S)-1-methylpyrrolidin-2-yl)methoxy)-5,6,7,8-tetrahydropyrido[3,4-d]pyrimidin-4-yl)piperazin-2-yl)acetonitrile] and `Cc1cccc2cccc(N3CCc4c(nc(OC[C@@H]5CCCN5C)nc4N4CCN(C(=O)/C=C/CN5CCOCC5)[C@@H](CC#N)C4)C3)c12` [Example 460, 2-[(2S)-4-[7-(8-methyl-1-naphthyl)-2-[[(2S)-1-methylpyrrolidin-2-yl]methoxy]-6,8-dihydro-5H-pyrido[3,4-d]pyrimidin-4-yl]-1-[(E)-4-morpholinobut-2-enoyl]piperazin-2-yl]acetonitrile] fall in the same range of IC50: 0.0001 to 1 µM for the first, 0.0001 to 1 µM for the second.

`Cc1cccc2cccc(N3CCc4c(nc(OCCC(=O)N(C)C)nc4N4CCN(C(=O)/C=C/CN(C)C)[C@@H](CC#N)C4)C3)c12` [Example 463, (S,E)-3-((4-(3-(cyanomethyl)-4-(4-(dimethylamino)but-2-enoyl)piperazin-1-yl)-7-(8-methylnaphthalen-1-yl)-5,6,7,8-tetrahydropyrido[3,4-d]pyrimidin-2-yl)oxy)-N,N-dimethylpropanamide] and `C=C(C(=O)N1CCN(c2nc(OC[C@@H]3CCCN3C)nc3c2CCN(c2cccc4cccc(C)c24)C3)C[C@@H]1CC#N)C(F)(F)F` [Example 492, 2-((S)-4-(7-(8-methylnaphthalen-1-yl)-2-(((S)-1-methylpyrrolidin-2-yl)methoxy)-5,6,7,8-tetrahydropyrido[3,4-d]pyrimidin-4-yl)-1-(2-(trifluoromethyl)acryloyl)piperazin-2-yl)acetonitrile] fall in the same range of IC50: 0.0001 to 1 µM for the first, 0.0001 to 1 µM for the second.

`C=CC(=O)N1CCN(c2nc(OC[C@@H]3CCCN3C)nc3c2CCN(c2cccc4cccc(Br)c24)C3)C[C@@H]1CC#N` [Example 464, 2-((S)-1-acryloyl-4-(7-(8-bromonaphthalen-1-yl)-2-(((S)-1-methylpyrrolidin-2-yl)methoxy)-5,6,7,8-tetrahydropyrido[3,4-d]pyrimidin-4-yl)piperazin-2-yl)acetonitrile] and `CN1CCC[C@H]1COc1nc2c(c(N3CCN(C(=O)C#CCO)[C@@H](CC#N)C3)n1)CCN(c1cccc3ccccc13)C2` [Example 474, 2-((S)-1-(4-hydroxybut-2-ynoyl)-4-(2-(((S)-1-methylpyrrolidin-2-yl)methoxy)-7-(naphthalen-1-yl)-5,6,7,8-tetrahydropyrido[3,4-d]pyrimidin-4-yl)piperazin-2-yl)acetonitrile] fall in the same range of IC50: 0.0001 to 1 µM for the first, 0.0001 to 1 µM for the second.

First: C=CC(=O)N1CCN(c2nc(OC[C@@H]3CCCN3C)nc3c2CCN(c2cccc4ccccc24)C3)[C@@H](C#N)C1 [Example 465, (R)-4-acryloyl-1-(2-(((S)-1-methylpyrrolidin-2-yl)methoxy)-7-(naphthalen-1-yl)-5,6,7,8-tetrahydropyrido[3,4-d]pyrimidin-4-yl)piperazine-2-carbonitrile]
Second: C=C(F)C(=O)N1CCN(c2nc(OC[C@@H]3CCCN3C)nc3c2CCN(c2cccc(C)c2C)C3)C[C@@H]1CC#N [Example 472, 2-[(2S)-4-[7-(2,3-dimethylphenyl)-2-[[(2S)-1-methylpyrrolidin-2-yl]methoxy]-6,8-dihydro-5H-pyrido[3,4-d]pyrimidin-4-yl]-1-(2-fluoroprop-2-enoyl)piperazin-2-yl]acetonitrile]
The IC50 of the first is higher: > 1 µM for the first, 0.0001 to 1 µM for the second. The second is the more potent here.

First: C=C(Cl)C(=O)N1CCN(c2nc(OC[C@@H]3CCCN3C)nc3c2CCN(c2cccc(C)c2C)C3)C[C@@H]1CC#N [Example 473, 2-[(2S)-1-(2-chloroprop-2-enoyl)-4-[7-(2,3-dimethylphenyl)-2-[[(2S)-1-methylpyrrolidin-2-yl]methoxy]-6,8-dihydro-5H-pyrido[3,4-d]pyrimidin-4-yl]piperazin-2-yl]acetonitrile]
Second: C=C(CO)C(=O)N1CCN(c2nc(OC[C@@H]3CCCN3C)nc3c2CCN(c2cccc(C)c2C)C3)C[C@@H]1CC#N [Example 488, 2-((S)-4-(7-(2,3-dimethylphenyl)-2-(((S)-1-methylpyrrolidin-2-yl)methoxy)-5,6,7,8-tetrahydropyrido[3,4-d]pyrimidin-4-yl)-1-(2-(hydroxymethyl)acryloyl)piperazin-2-yl)acetonitrile]
The IC50 of the first is lower: 0.0001 to 1 µM for the first, > 1 µM for the second. The first is the more potent here.

`Cc1cccc(N2CCc3c(nc(OC[C@@H]4CCCN4C)nc3N3CCN(C(=O)/C=C/CN4CCC(F)C4)[C@@H](CC#N)C3)C2)c1C` (stereo partly drawn) [Example 476, 2-[(2S)-4-[7-(2,3-dimethylphenyl)-2-[[(2S)-1-methylpyrrolidin-2-yl]methoxy]-6,8-dihydro-5H-pyrido[3,4-d]pyrimidin-4-yl]-1-[(E)-4-(3-fluoropyrrolidin-1-yl)but-2-enoyl]piperazin-2-yl]acetonitrile] and `COC/C=C/C(=O)N1CCN(c2nc(OC[C@@H]3CCCN3C)nc3c2CCN(c2cccc(C)c2C)C3)C[C@@H]1CC#N` [Example 489, 2-((S)-4-(7-(2,3-dimethylphenyl)-2-(((S)-1-methylpyrrolidin-2-yl)methoxy)-5,6,7,8-tetrahydropyrido[3,4-d]pyrimidin-4-yl)-1-((E)-4-methoxybut-2-enoyl)piperazin-2-yl)acetonitrile] fall in the same range of IC50: 0.0001 to 1 µM for the first, 0.0001 to 1 µM for the second.

`Cc1cccc(N2CCc3c(nc(OC[C@@H]4CCCN4C)nc3N3CCN(C(=O)/C=C/C(F)(F)F)[C@@H](CC#N)C3)C2)c1C` [Example 486, 2-((S)-4-(7-(2,3-dimethylphenyl)-2-(((S)-1-methylpyrrolidin-2-yl)methoxy)-5,6,7,8-tetrahydropyrido[3,4-d]pyrimidin-4-yl)-1-((E)-4,4,4-trifluorobut-2-enoyl)piperazin-2-yl)acetonitrile] and `C=C(C(=O)N1CCN(c2nc(OC[C@@H]3CCCN3C)nc3c2CCN(c2cccc(C)c2C)C3)C[C@@H]1CC#N)C(F)(F)F` [Example 487, 2-((S)-4-(7-(2,3-dimethylphenyl)-2-(((S)-1-methylpyrrolidin-2-yl)methoxy)-5,6,7,8-tetrahydropyrido[3,4-d]pyrimidin-4-yl)-1-(2-(trifluoromethyl)acryloyl)piperazin-2-yl)acetonitrile] fall in the same range of IC50: 0.0001 to 1 µM for the first, 0.0001 to 1 µM for the second.
